The text below walks through data of publication PMC10589072, “Evaluation of Potential Peptide-Based Inhibitors against SARS-CoV-2 and Variants of Concern” (BioMed Research International, 2023).

Data set [1] concerns 293T ACE-2 SSC22 cells (HEK 293T expressing ACE2 receptor). As for the experimental part: The cytotoxicity of the peptides was assessed using a viability assay. […] Cells with peptides were cultured for 3 days, after which cell viability was measured using an ATP assay (Promega, G9681).
Data set [2] addresses T1, SARS-CoV-2 spike S1 protein (Severe acute respiratory syndrome coronavirus 2, UniProt P0DTC2).
T1 construct: The fluorescent dye NT647 was used to label the SARS-CoV-2 spike S1; purchased Sino Biological 40591-V08H
The experiment in a line: biochemical. The format is binding.

Where no end group is shown, it is not given here.

As for “IDWQFWFHYDKWDHEWEDEWYQSS-NH2 [Peptide P25]”, the “cytotoxicity” value in data set [1] (0.125 to 4 mM, 72 hours, ATP assay, n = 3) is given as “low toxicity”. For the same substance, in data set [1] (72 h, 4 mM), the cell viability is recorded as 91-100%. For the same substance, the “KD compared with ACE2-S protein affinity” value in data set [2] is “comparable to the observed affinity between the S protein and ACE2”. Besides, in data set [2] (21°C, read-out: KD (constant of dissociation)), the Kd came to 0.0422 µM.
